# Source: the supplement of paper PMC10307832
# How the values were obtained:
# Test in all cases: relative viability (nuclei count vs DMSO), 5 days (fraction); higher = more cells survive
# [1] = compound: CCC1=CN=CN=C1N2CCN(CC2)CC3=NC4=C(N3)C=C(C=C4)C(F)(F)F + CS(=O)(=O)N1CCN(Cc2cc3nc(-c4cccc5[nH]ncc45)nc(N4CCOCC4)c3s2)CC1 [Pictilisib] (partner 1 µM)
# Outline: (§1)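 Five library-drug doses in √10 steps were combined with a fixed anchor-drug dose, or a single drug was given alone, by pin tool to lung cancer cell lines in 1536-well plates the day after seeding. Nuclei were stained and counted after 5 days. Relative viability is the nuclei count in treated wells over that in vehicle wells, taken as the median of duplicate plates.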
# Mirin + Linsitinib = compound: N=C1NC(=O)/C(=C/c2ccc(O)cc2)S1 [Mirin] + C[C@]1(O)C[C@@H](c2nc(-c3ccc4ccc(-c5ccccc5)nc4c3)c3c(N)nccn32)C1 [Linsitinib] (partner 1 µM)
# Outline: as §1
# Mirin + Navitoclax = compound: N=C1NC(=O)/C(=C/c2ccc(O)cc2)S1 [Mirin] + CC1(C)CCC(c2ccc(Cl)cc2)=C(CN2CCN(c3ccc(C(=O)NS(=O)(=O)c4ccc(N[C@H](CCN5CCOCC5)CSc5ccccc5)c(S(=O)(=O)C(F)(F)F)c4)cc3)CC2)C1 [Navitoclax] (partner 0.5 µM)
# Outline: as §1
# [2] = compound: CCC1=CN=CN=C1N2CCN(CC2)CC3=NC4=C(N3)C=C(C=C4)C(F)(F)F + CC(=O)c1c(C)c2cnc(Nc3ccc(N4CCNCC4)cn3)nc2n(C2CCCC2)c1=O [Palbociclib] (partner 0.5 µM)
# Outline: as §1
Cell Line,relative viability ([1]; first compound 0.04 µM),relative viability ([1]; first compound 0.1265 µM),relative viability ([1]; first compound 0.4 µM),relative viability ([1]; first compound 4 µM),relative viability (Mirin + Linsitinib; first compound 0.25 µM),relative viability (Mirin + Linsitinib; first compound 0.7906 µM),relative viability (Mirin + Linsitinib; first compound 2.5 µM),relative viability (Mirin + Linsitinib; first compound 7.906 µM),relative viability (Mirin + Linsitinib; first compound 25 µM),relative viability (Mirin + Navitoclax; first compound 0.25 µM),relative viability (Mirin + Navitoclax; first compound 0.7906 µM),relative viability (Mirin + Navitoclax; first compound 2.5 µM),relative viability (Mirin + Navitoclax; first compound 7.906 µM),relative viability (Mirin + Navitoclax; first compound 25 µM),relative viability ([2]; first compound 0.04 µM),relative viability ([2]; first compound 0.1265 µM),relative viability ([2]; first compound 0.4 µM),relative viability ([2]; first compound 1.265 µM),relative viability ([2]; first compound 4 µM),relative viability ([1]; first compound 1.265 µM)
NCI-H2347,0.58,0.591,0.652,0.671,0.923,1.09,0.98,0.989,0.985,0.8,0.784,0.812,0.825,0.893,0.386,0.396,0.424,0.368,0.422,
NCI-H1993,0.837,0.808,0.708,0.834,0.739,0.746,0.698,0.727,0.756,1.03,1.02,0.913,0.932,0.749,0.661,0.586,0.622,0.586,0.654,0.765
HCC-827,0.978,1.04,1.03,0.994,0.959,0.972,0.949,0.935,1.18,1.01,1,1,1.07,1.27,0.497,0.53,0.498,0.431,0.468,0.957
CAL-12T,,0.541,0.295,0.361,0.856,0.726,0.825,0.856,0.838,0.854,1.49,1.26,1.26,1.66,0.558,0.409,0.601,0.288,0.556,0.314
PC-14,0.845,0.621,0.671,0.6,0.929,0.959,1.03,0.97,1.08,1.04,1.04,1.08,1.03,1.17,0.519,0.518,0.548,0.608,0.506,0.573
NCI-H23,0.58,0.439,0.41,0.432,0.618,,0.573,0.612,0.543,0.941,,0.783,0.682,0.71,0.496,0.584,0.541,0.42,0.531,0.348
SK-LU-1,0.573,0.494,0.469,0.486,1.14,1.15,1.17,0.74,0.566,1.05,0.909,0.793,0.772,0.498,0.412,0.394,0.41,0.26,0.418,
NCI-H727,0.521,0.377,0.29,0.382,0.328,0.39,0.3,0.383,0.333,0.518,0.473,0.393,0.728,0.454,0.688,0.644,0.526,0.576,0.661,
